From patent US20100190832A1, “Mechanism-based inhibitors of transthyretin amyloidosis: studies with biphenyl ethers and structural templates” (NATIONAL INSTITUTE OF IMMUNOLOGY., priority 2008, published 2010)
Like-named read-outs stand apart in the source and are kept apart here.

Key:
WT-TTR = molecular target: T1, WT-TTR (Homo sapiens, UniProt P02766); experiment: Stagnant acid-mediated TTR aggregation (fibril formation) assay, turbidity at 340 nm; type: biochemical; settings: for remaining activity at 50 µM / remaining activity at 7.2 µM / remaining activity at 21.6 µM: 72 h; for remaining activity at 50 µM: read-out: % FF at 50 μM; for inhibition of TTR fibrillization: inhibitor 21.6 μM
T1 construct: made in house
Protocol: Stagnant Acid-Mediated TTR Aggregation Assay.
After 1 h, the samples were diluted with 0.5 ml of 200 mM sodium acetate buffer containing 100 mM KCl and 1 mM EDTA. Samples after mild vortexing were incubated at 37° C. for the desired amount of time without stirring to evaluate the efficacy of the inhibitors. The extent of aggregation was probed by turbidity measurements at 340 nm using Tecan GENios microplate reader. […] The extent of TTR fibril formation in the absence of inhibitor was defined to be 100%. […] All experiments were done in triplicate. […] The IC50 was determined by plotting mean of % inhibition vs log and fitted to sigmoid equation:
(§1) The experiments were conducted at 25° C. After 1 h, the samples were diluted with 0.5 mL of 200 mM sodium acetate buffer pH 4.4 containing 100 mM KCl and 1 mM EDTA, vortexed, and incubated at 37° C. for 72 h. […] The stoichiometry of the binding of the inhibitors was determined by HPLC as described by Green et al., N. S. Palaninathan, S, L, Sacchettini, J. e. […] Dissociation constant of binding of these compounds to TTR was determined by fluorescence titration, and data were fitted into the Adair equation for two bind mg.

TTR [1] = molecular target: T2, TTR (Homo sapiens, UniProt P02766); experiment: Dissociation constant by fluorescence titration (Adair equation, two sites); type: binding
T2 construct: made in house
Protocol: as §1
Small aliquots of 1 mM ligands solutions were successively added to the […] in 100 mM sodium acetate buffer pH 4.4 at […] under constant stirring. After each addition sample was left for 2 min. […] Readings were corrected for buffer blank, dilution and inner filter effect. The inner filter effect was corrected by using the following equation,
From the titration data the dissociation constant was determined by fitting data in following Adair equation for two binding sites-

TTR [2] = molecular target: T2, TTR; experiment: Time course (kinetics) of fibril formation, turbidity at 340 nm for 3 h; type: biochemical; settings: TTR 7.2 μM, inhibitor 21.6 μM, 37° C., pH 4.4, 3 h
Protocol: Time Course of Fibril Formation. The kinetics of inhibition was studied by incubating […] TTR with […] of different inhibitors in 100 µl of 5 mM phosphate buffer pH 7.2 for 30 min in a 96 microwell plate. […] of 0.2 M sodium acetate buffer pH 4.4 containing 1 mM EDTA and 100 mM KCl was added. The difference in turbidity was assessed by measuring the change in absorbance at 340 nm on Tecan GEnios microplate reader using Magellan software. For kinetics, parameters were set for 30 cycles at 37° C. at the interval of 5 min each and 2 min orbital shaking (low speed) between cycles and 10 sec shaking (normal speed) before measurement. All experiments were performed in triplicates. Change in absorbance at 340 nm was plotted against time in the presence and absence of inhibitors initial rate of fibril formation was calculated from the slope by linear fitting of the data.
All experiments were performed three times in triplicates. Change in absorbance (mean of three different experiments) at 340 nm was plotted against time in the presence and absence of inhibitors. Initial rate of fibril form action was calculated from the value of the slope by linear fitting of the change in absorbance at 340 nm as a function of time.

TTR fibers = molecular target: T3, TTR fibers (Homo sapiens, UniProt P02766); experiment: Fibril disruption assay; type: biochemical; settings: three doses (7.2 μM each), 15 days, Th-T fluorescence
T3 construct: made in house
Protocol: Fibril Disruption Assay. […] The disruption was followed for 7 days by turbidity measurements at 340 nm and Th-T fluorescence. A second dose of the inhibitor (7.2 μM) was added after 24 h of incubation, and samples were incubated and monitored further for 5-6 days. After 15-20 days of incubation, samples were examined by transmission electron microscopy (TEM). All experiments were done thrice in triplicates each time.

TTR tetramer = molecular target: T4, TTR tetramer (Homo sapiens, UniProt P02766); experiment: Urea denaturation (tetramer dissociation, tryptophan fluorescence); type: biochemical; settings: TTR 1.8 μM, inhibitor 5.4 μM (1:3), 6 M urea, 25° C., up to […]
T4 construct: made in house

[3] = 50% reduction in fibril formation, TTR 7.2 μM, pH 4.4, read-out: IC50 ± SE
[4] = biphenyl ether 50 μM, WT-TTR 7.2 μM
[5] = pH 4.4, TTR 7.2 μM, inhibitor 7.2 μM (1:1), pH 4.4, 37° C., no inhibitor = 100%, read-out: % FF 1:1
[6] = pH 4.4, TTR 7.2 μM, inhibitor 21.6 μM (1:3), pH 4.4, 37° C., no inhibitor = 100%, read-out: % FF 1:3
[7] = TTR amyloid formation, 37° C., read-out: IC50
[8] = Table 3, WT-TTR 7.2 μM, read-out: IC50
[9] = pH 4.4; read-out: Dissociation Constant Kd1
[10] = pH 4.4; read-out: Dissociation Constant Kd2

IC50 (WT-TTR; [3]) [nM] | remaining activity at 50 µM (WT-TTR; [4]) [%] | remaining activity at 7.2 µM (WT-TTR; [5]) [%] | remaining activity at 21.6 µM (WT-TTR; [6]) [%] | IC50 (WT-TTR; [7]) [nM] | IC50 (WT-TTR; [8]) [nM] | Kd (TTR [1]; [9]) [nM] | Kd (TTR [1]; [10]) [nM] | inhibition at 21.6 µM (TTR [2]) [%] | disruption of preformed TTR fibers (TTR fibers) | protein dissociates (tetramer dissociation) (TTR tetramer) [%] | inhibition of TTR fibrillization (WT-TTR; TTR 7.2 μM) | % FF 1:1 (WT-TTR; TTR 7.2 μM, inhibitor 7.2 μM (1:1), pH 4.4, 37° C., no inhibitor = 100%) [%] | % FF 1:3 (WT-TTR; TTR 7.2 μM, inhibitor 21.6 μM (1:3), pH 4.4, 37° C., no inhibitor = 100%) [%] | SMILES | remaining activity at 7.2 µM (WT-TTR; pH 4.4, read-out: % FF 1:1) [%] | remaining activity at 21.6 µM (WT-TTR; pH 4.4, read-out: % FF 1:3) [%] | remaining activity at 50 µM (WT-TTR) [%] | inhibition at 21.6 µM (WT-TTR; pH 4.4, read-out: inhibition of fibril formation) [%] | Kd (TTR [1]; read-out: Dissociation Constant Kd2; pH 4.4) [nM] | IC50 (WT-TTR) [nM]
1360 ± 50 | 11.5 | 12 | 2.6 | 470 to 3500 | 1360 | 0.3 ± 0.14 | 13800 ± 1020 | > 80 | more effective |  |  |  |  | OCc1ccc(Oc2ccc(Cl)cc2Cl)c(O)c1 [Compound 4] |  |  |  |  |  | 
2590 ± 140 | 0 | 29 | 13.3 | 470 to 3500 | 2590 | 27 ± 8.03 | 3 ± 0.78 | > 80 |  | 21 |  |  |  | O=C(O)c1ccc(Oc2ccc(Cl)cc2Cl)c(O)c1 [Compound 7] |  |  |  |  |  | 
 | 0 | 10 | 0 |  |  |  |  | > 80 | more effective |  |  |  |  | COc1cc(C(=O)O)ccc1Oc1ccc(Cl)cc1Cl [Compound 6] |  |  |  |  |  | 
1060 ± 10 |  | 11 | 3.6 | 470 to 3500 |  | 120 ± 32.1 |  | > 80 | more effective |  | completely |  |  | O=C(Nc1nnc[nH]1)c1c(Cl)ccc(Cl)c1Cl [Compound 12] |  |  |  |  |  | 
3100 ± 50 |  | 21 | 0 | 470 to 3500 |  | 42 ± 2.35 | 72.6 ± 10.3 | > 80 |  |  | completely |  |  | Oc1ccccc1-c1nnc(S)o1 [Compound 11] |  |  |  |  |  | 

More lines, now with the values behind:

SMILES | IC50 (WT-TTR; [3]) [nM] | remaining activity at 50 µM (WT-TTR; [4]) [%] | remaining activity at 7.2 µM (WT-TTR; [5]) [%] | remaining activity at 21.6 µM (WT-TTR; [6]) [%] | IC50 (WT-TTR; [7]) [nM] | IC50 (WT-TTR; [8]) [nM] | Kd (TTR [1]; [9]) [nM] | Kd (TTR [1]; [10]) [nM] | inhibition at 21.6 µM (TTR [2]) [%] | disruption of preformed TTR fibers (TTR fibers) | protein dissociates (tetramer dissociation) (TTR tetramer) [%] | inhibition of TTR fibrillization (WT-TTR; TTR 7.2 μM) | % FF 1:1 (WT-TTR; TTR 7.2 μM, inhibitor 7.2 μM (1:1), pH 4.4, 37° C., no inhibitor = 100%) [%] | % FF 1:3 (WT-TTR; TTR 7.2 μM, inhibitor 21.6 μM (1:3), pH 4.4, 37° C., no inhibitor = 100%) [%] | remaining activity at 7.2 µM (WT-TTR; pH 4.4, read-out: % FF 1:1) [%] | remaining activity at 21.6 µM (WT-TTR; pH 4.4, read-out: % FF 1:3) [%] | remaining activity at 50 µM (WT-TTR) [%] | inhibition at 21.6 µM (WT-TTR; pH 4.4, read-out: inhibition of fibril formation) [%] | Kd (TTR [1]; read-out: Dissociation Constant Kd2; pH 4.4) [nM] | IC50 (WT-TTR) [nM]
Oc1cc(Cl)ccc1Oc1ccc(Cl)cc1Cl [Compound 1, Triclosan, reference compound] |  |  |  |  |  |  |  |  | 62 |  | 47 |  |  |  | 75 | 66 | 41 | ~24 |  | 
O=Cc1ccc(Oc2ccc(Cl)cc2Cl)c(O)c1 [Compound 2] |  |  |  |  |  |  | 13.9 ± 5.01 |  | > 80 |  |  |  |  |  |  |  |  |  | 525 ± 60.1 | 
COc1cc(CCl)ccc1Oc1ccc(Cl)cc1Cl [Compound 5] | 3160 ± 40 | 0 | 26 | 0 |  | 3160 |  |  | > 80 | more effective |  |  |  |  |  |  |  |  |  | 470 to 3500
COc1cc(C=O)ccc1Oc1ccccc1 [Compound 9] | 1310 ± 80 | 0 | 12 | 0 | 470 to 3500 | 1310 | 88 ± 10.1 |  | > 80 | more effective |  |  |  |  |  |  |  |  |  | 
N[C@H](Cc1cc(I)c(Oc2cc(I)c(O)c(I)c2)c(I)c1)C(=O)O (stereo in doubt) [Compound 13, thyroxine, reference compound] |  |  |  |  |  |  |  |  | 75 |  | 27 |  | 48 | 7 |  |  |  |  |  | 
